Values after ≈ are worked out from the molar mass of the structure shown. Active and inactive are the calls of the source. The rule behind the calls is not given here.
Assays:
[1] = Retention time of the compound by RP-HPLC analysis; type: physicochemical
[2] = tested on: Staphylococcus aureus; assay: Antibacterial activity against Staphylococcus aureus ATCC 25923 assessed as inhibition of bacterial growth incubated for 18 hrs by microbroth dilution assay; type: functional
[3] = tested on: Bacillus subtilis; assay: Antibacterial activity against Bacillus subtilis ATCC 23857 assessed as inhibition of bacterial growth incubated for 18 hrs by microbroth dilution assay; type: functional
[4] = tested on: Staphylococcus epidermidis; assay: Antibacterial activity against Staphylococcus epidermidis ATCC 12228 assessed as inhibition of bacterial growth incubated for 18 hrs by microbroth dilution assay; type: functional
[5] = tested on: Klebsiella pneumoniae; assay: Antibacterial activity against Klebsiella pneumoniae ATCC 700603 assessed as inhibition of bacterial growth incubated for 18 hrs by microbroth dilution assay; type: functional
[6] = tested on: Escherichia coli; assay: Antibacterial activity against Escherichia coli ATCC 25922 assessed as inhibition of bacterial growth incubated for 18 hrs by microbroth dilution assay; type: functional
[7] = tested on: Pseudomonas aeruginosa; assay: Antibacterial activity against Pseudomonas aeruginosa ATCC 27853 assessed as inhibition of bacterial growth incubated for 18 hrs by microbroth dilution assay; type: functional
[8] = Hemolytic activity in Kunming mouse erythrocytes assessed as hemolysis incubated for 1 hr by multimode reader analysis; type: toxicity, cell-based; conditions: erythrocyte
[9] = Hemolytic activity in Kunming mouse erythrocytes assessed as hemolytic rate at 256 uM incubated for 1 hr by multimode reader analysis relative to control; type: toxicity, cell-based, Erythrocyte; conditions: read-out: Activity
[10] = tested on: Staphylococcus aureus; assay: Antibacterial activity against Staphylococcus aureus ATCC 25923 in presence of 150 mM NaCl; type: functional, organism-based
[11] = tested on: Staphylococcus aureus; assay: Antibacterial activity against Staphylococcus aureus ATCC 25923 in presence of 4.5 mM KCl; type: functional, organism-based
[12] = tested on: Staphylococcus aureus; assay: Antibacterial activity against Staphylococcus aureus ATCC 25923 in presence of 6 uM NH4Cl; type: functional, organism-based
[13] = tested on: Staphylococcus aureus; assay: Antibacterial activity against Staphylococcus aureus ATCC 25923 in presence of 1 mM MgCl2; type: functional, organism-based
[14] = tested on: Staphylococcus aureus; assay: Antibacterial activity against Staphylococcus aureus ATCC 25923 in presence of 8 uM ZnCl2; type: functional, organism-based
[15] = tested on: Staphylococcus aureus; assay: Antibacterial activity against Staphylococcus aureus ATCC 25923 in presence of 2 mM CaCl2; type: functional, organism-based
[16] = tested on: Staphylococcus aureus; assay: Antibacterial activity against Staphylococcus aureus ATCC 25923 in presence of 4 uM FeCl3; type: functional, organism-based
[17] = tested on: Pseudomonas aeruginosa; assay: Antibacterial activity against Pseudomonas aeruginosa ATCC 27853 in presence of 150 mM NaCl; type: functional, organism-based
[18] = tested on: Pseudomonas aeruginosa; assay: Antibacterial activity against Pseudomonas aeruginosa ATCC 27853 in presence of 4.5 mM KCl; type: functional, organism-based
[19] = tested on: Pseudomonas aeruginosa; assay: Antibacterial activity against Pseudomonas aeruginosa ATCC 27853 in presence of 6 uM NH4Cl; type: functional, organism-based
[20] = tested on: Pseudomonas aeruginosa; assay: Antibacterial activity against Pseudomonas aeruginosa ATCC 27853 in presence of 8 uM ZnCl2; type: functional, organism-based
[21] = tested on: Pseudomonas aeruginosa; assay: Antibacterial activity against Pseudomonas aeruginosa ATCC 27853 in presence of 2 mM CaCl2; type: functional, organism-based
[22] = tested on: Pseudomonas aeruginosa; assay: Induction of drug resistance in Pseudomonas aeruginosa ATCC 27853 assessed as fold increase in MIC incubated for 24 hrs and measured under 40 passages; type: functional
[23] = tested on: Staphylococcus aureus; assay: Inhibition of biofilm formation in Staphylococcus aureus ATCC 25923 incubated for 24 hrs by crystal violet staining based analysis; type: functional, organism-based; conditions: dose 1-32 µM
[24] = tested on: Escherichia coli; assay: Inhibition of biofilm formation in Escherichia coli ATCC 25922 incubated for 24 hrs by crystal violet staining based analysis; type: functional, organism-based; conditions: dose 1-32 µM
[25] = tested on: Klebsiella pneumoniae; assay: Inhibition of biofilm formation in Klebsiella pneumoniae ATCC 700603 incubated for 24 hrs by crystal violet staining based analysis; type: functional, organism-based; conditions: dose 1-32 µM
[26] = tested on: Escherichia coli; assay: Inhibition of biofilm formation in Escherichia coli ATCC 25922 at >= 2 uM incubated for 24 hrs by crystal violet staining based analysis; type: functional, organism-based
[27] = tested on: Klebsiella pneumoniae; assay: Inhibition of biofilm formation in Klebsiella pneumoniae ATCC 700603 at 1 uM incubated for 24 hrs by crystal violet staining based analysis; type: functional, organism-based
[28] = tested on: Staphylococcus aureus; assay: Synergistic antibacterial activity against Staphylococcus aureus assessed as fractional inhibitory concentration index in presence of bacitracin incubated for 18 hrs by checkerboard method; type: functional
[29] = tested on: Escherichia coli; assay: Synergistic antibacterial activity against Escherichia coli assessed as fractional inhibitory concentration index in presence of rifampin incubated for 18 hrs by checkerboard method; type: functional
[30] = tested on: Escherichia coli; assay: Synergistic antibacterial activity against Escherichia coli assessed as fractional inhibitory concentration index in presence of polymyxin B incubated for 18 hrs by checkerboard method; type: functional
[31] = tested on: Klebsiella pneumoniae; assay: Synergistic antibacterial activity against Klebsiella pneumoniae assessed as fractional inhibitory concentration index in presence of kanamycin incubated for 18 hrs by checkerboard method; type: functional
[32] = tested on: Klebsiella pneumoniae; assay: Synergistic antibacterial activity against Klebsiella pneumoniae assessed as fractional inhibitory concentration index in presence of rifampin incubated for 18 hrs by checkerboard method; type: functional
[33] = tested on: Klebsiella pneumoniae; assay: Synergistic antibacterial activity against Klebsiella pneumoniae assessed as fractional inhibitory concentration index in presence of polymyxin B incubated for 18 hrs by checkerboard method; type: functional
[34] = tested on: Pseudomonas aeruginosa; assay: Synergistic antibacterial activity against Pseudomonas aeruginosa assessed as fractional inhibitory concentration index in presence of imipenem incubated for 18 hrs by checkerboard method; type: functional
[35] = tested on: Pseudomonas aeruginosa; assay: Synergistic antibacterial activity against Pseudomonas aeruginosa assessed as fractional inhibitory concentration index in presence of rifampin incubated for 18 hrs by checkerboard method; type: functional
[36] = tested on: Cell membrane; assay: Induction of cell membrane permeability in Escherichia coli assessed as cluster formation at 2 times MIC by SEM analysis; type: subcellular
[37] = tested on: Cell membrane; assay: Induction of cell membrane permeability in Escherichia coli assessed as grooves shallower at 2 times MIC by SEM analysis; type: subcellular
[38] = tested on: Cell membrane; assay: Induction of Outer membrane permeabilization in Escherichia coli assessed as increase in fluorescence intensity incubated for 1 min by NPN-dye based fluorescence analysis; type: subcellular
[39] = tested on: Klebsiella pneumoniae; assay: In vivo antibacterial activity against Klebsiella pneumoniae ATCC 700603 infected in male Balb/c mouse lung infection model assessed as reduction in pulmonary bacterial load at 5 mg/kg, ip measured after 24 hrs (reference value: 3.05 x 10^9 CFU/g); type: functional
[40] = tested on: Klebsiella pneumoniae; assay: In vivo antibacterial activity against Klebsiella pneumoniae ATCC 700603 infected in male Balb/c mouse lung infection model assessed as reduction in pulmonary bacterial load at 10 mg/kg, ip measured after 24 hrs (reference value: 3.05 x 10^9 CFU/g); type: functional
[41] = tested on: Klebsiella pneumoniae; assay: In vivo antibacterial activity against Klebsiella pneumoniae ATCC 700603 infected in male Balb/c mouse lung infection model assessed as reduction in alveoli expansion at 10 mg/kg, ip measured after 24 hrs by H and E staining based analysis; type: functional, organism-based
[42] = tested on: Klebsiella pneumoniae; assay: In vivo antibacterial activity against Klebsiella pneumoniae ATCC 700603 infected in male Balb/c mouse lung infection model assessed as reduction in serous exudation of alveolar cavities at 10 mg/kg, ip measured after 24 hrs by H and E staining based analysis; type: functional, organism-based
[43] = tested on: Klebsiella pneumoniae; assay: In vivo antibacterial activity against Klebsiella pneumoniae ATCC 700603 infected in male Balb/c mouse lung infection model assessed as reduction in crumpling alveoli at 10 mg/kg, ip measured after 24 hrs by H and E staining based analysis; type: functional, organism-based
[44] = Acute toxicity in male balb/c mouse assessed as lethal dose at ip administration; type: organism-based; conditions: in vivo

SMILES: N=C(N)NCCC[C@@H](NC(=O)CNC(=O)[C@H]1CCCN1C(=O)[C@@H](CCCNC(=N)N)NC(=O)[C@@H](Cc1ccccc1)NC(=O)[C@@H](CCCNC(=N)N)NC(=O)[C@@H](Cc1ccccc1)NC(=O)[C@@H](CCCNC(=N)N)NC(=O)[C@H](N)Cc1ccccc1)C(=O)N[C@H](Cc1ccccc1)C(=O)N[C@H](CCCNC(=N)N)C(=O)N[C@H](Cc1ccccc1)C(=O)N[C@H](CCCNC(=N)N)C(=O)N[C@H](Cc1ccccc1)C(N)=O
- Retention_time [1]: 14.438 min
- MIC [2]: 4 µM (≈ 7.97 µg/mL)
- MIC [3]: 2 µM (≈ 3.98 µg/mL)
- MIC [4]: 2 µM (≈ 3.98 µg/mL)
- MIC [5]: 8 µM (≈ 15.9 µg/mL)
- MIC [6]: 8 µM (≈ 15.9 µg/mL)
- MIC [7]: 4 µM (≈ 7.97 µg/mL)
- MHC10 [8]: > 256 µM
- hemolysis at 1 h, 256 µM [9]: 4.3%
- Activity [10]: Active
- Activity [11]: Active
- Activity [12]: Active
- Activity [13]: Active
- Activity [14]: Active
- Activity [15]: Active
- Activity [16]: Active
- Activity [17]: Active
- Activity [18]: Active
- Activity [19]: Active
- Activity [20]: Active
- Activity [21]: Active
- fold change (FC) [22]: <4
- inhibition [23]: Dose-dependent-effect
- inhibition [24]: Dose-dependent-effect
- inhibition [25]: Dose-dependent-effect
- inhibition [26]: Active
- inhibition [27]: Active; Less Effective Than Polymyxin B
- fractional inhibitory concentration index (FICI) [28]: 0.375
- fractional inhibitory concentration index (FICI) [29]: 0.25
- fractional inhibitory concentration index (FICI) [30]: 0.188
- fractional inhibitory concentration index (FICI) [31]: 0.375
- fractional inhibitory concentration index (FICI) [32]: 0.313
- fractional inhibitory concentration index (FICI) [33]: 0.188
- fractional inhibitory concentration index (FICI) [34]: 0.375
- fractional inhibitory concentration index (FICI) [35]: 0.313
- Activity [36]: Active
- Activity [37]: Active
- Activity [38]: Active
- Activity [39]: 5.98 10^7CFU/g
- Activity [40]: 2.48 10^7CFU/g
- Activity [41]: Active
- Activity [42]: Active
- Activity [43]: Active
- LD50 [44]: 45.3 mg/kg

SMILES: N=C(N)NCCC[C@H](NC(=O)CNC(=O)[C@H]1CCCN1C(=O)[C@H](CCCNC(=N)N)NC(=O)[C@H](Cc1ccccc1)NC(=O)[C@H](CCCNC(=N)N)NC(=O)[C@H](Cc1ccccc1)NC(=O)[C@H](CCCNC(=N)N)NC(=O)[C@@H](N)Cc1ccccc1)C(=O)N[C@@H](Cc1ccccc1)C(=O)N[C@@H](CCCNC(=N)N)C(=O)N[C@@H](Cc1ccccc1)C(=O)N[C@@H](CCCNC(=N)N)C(=O)N[C@@H](Cc1ccccc1)C(N)=O
- Retention_time [1]: 14.433 min
- MIC [2]: 4 µM (≈ 7.97 µg/mL)
- MIC [3]: 4 µM (≈ 7.97 µg/mL)
- MIC [4]: 2 µM (≈ 3.98 µg/mL)
- MIC [5]: 8 µM (≈ 15.9 µg/mL)
- MIC [6]: 4 µM (≈ 7.97 µg/mL)
- MIC [7]: 4 µM (≈ 7.97 µg/mL)
- MHC10 [8]: 512 µM
- hemolysis at 1 h, 256 µM [9]: 9.7%
- Activity [10]: Active
- Activity [11]: Active
- Activity [12]: Active
- Activity [13]: Active
- Activity [14]: Active
- Activity [15]: Active
- Activity [16]: Active
- Activity [17]: Active
- Activity [18]: Active
- Activity [19]: Active
- Activity [20]: Active
- Activity [21]: Active
- fold change (FC) [22]: <4
- inhibition [23]: Dose-dependent-effect
- inhibition [24]: Dose-dependent-effect
- inhibition [25]: Dose-dependent-effect
- inhibition [26]: Active
- inhibition [27]: Active; Less Effective Than Polymyxin B
- fractional inhibitory concentration index (FICI) [28]: 0.375
- fractional inhibitory concentration index (FICI) [29]: 0.313
- fractional inhibitory concentration index (FICI) [30]: 0.25
- fractional inhibitory concentration index (FICI) [31]: 0.313
- fractional inhibitory concentration index (FICI) [32]: 0.313
- fractional inhibitory concentration index (FICI) [33]: 0.188
- fractional inhibitory concentration index (FICI) [34]: 0.313
- fractional inhibitory concentration index (FICI) [35]: 0.313
- Activity [36]: Active
- Activity [37]: Active
- Activity [38]: Active
- Activity [39]: 1.52 10^8CFU/g
- Activity [40]: 4.93 10^7CFU/g
- Activity [41]: Active
- Activity [42]: Active
- Activity [43]: Active
- LD50 [44]: 81.3 mg/kg

Source: ChEMBL document CHEMBL6087436, “The novel β-hairpin antimicrobial peptide D-G(RF)3 demonstrates exceptional antibacterial efficacy” (Eur J Med Chem, 2025)
